Assays:
A431 tumor bearing mice [1] = experiment: Percentage of attenuation of fluorescence versus cellular cytotoxicity after therapeutic light irradiation (PIT), FIG. 4; format: in vivo
Protocol: The total amount of irradiation is the same in both the case where irradiation is performed with the therapeutic light L with the light intensity of 50 mW/cm^2 or less and the case where irradiation is performed with the therapeutic light L with the light intensity of 100 mW/cm^2 or more. In other words, in the case where irradiation is performed with the therapeutic light L with the light intensity of 50 mW/cm^2 or less, a time period during which the cells C are irradiated is longer than a time period during which the cells C are irradiated with the therapeutic light L with the light intensity of 100 mW/cm^2 or more.
After the cells C are irradiated with the therapeutic light L, if the rate of reduction of fluorescence (the percentage of attenuation of fluorescence) and cellular cytotoxicity have a proportional relation, as shown by a dashed-and-dotted line A in FIG. 4, when the rate of reduction of fluorescence is 100%, cellular cytotoxicity is 100%. Therefore, it should be determined that all cells C disappear if fluorescence is no longer detected.
How ever, as the result of experiments performed by the applicant, the following is found. In actual experiments, as the result of observation that is performed after irradiation, by using the endoscope 1, for example, as the rate of reduction of fluorescence approaches 70% (or little more than 70%), cellular cytotoxicity approaches 100%.

A431 tumor bearing mice [2] = experiment: Rates of damage of tumor tissues from pathological images after irradiation at different light intensities (PIT), FIG. 5; format: in vivo; details: 300 μg/mouse, irradiated one day after administration, total amount 100 J/cm^2, 25 mW/cm^2 or 50 mW/cm^2 compared with 100 mW/cm^2 or 300 mW/cm^2, tumors excised after one more day
Protocol: Pan-IR700, which is the photosensitizing agent 20, is administered to the A431 tumor bearing mice at 300 μg/mouse. One day after the administration of Pan-IR700, the cells C are irradiated with light of respective irradiation intensities shown in FIG. 5 up to the same total amount (100 J/cm^2). After one more day, tumor tissues are excised, and rates of damage of the tissues are calculated from pathological images of cross sections of the tumors.

Substance: Pan-IR700: phthalocyanine fluorescent dye (IRDye 700) attached to one antibody molecule (panitumumab, monoclonal antibody to Human EGFR)
- cellular cytotoxicity (A431 tumor bearing mice [1]; as the rate of reduction of fluorescence approaches 70% (or little more than 70%), after irradiation with therapeutic light L, FIG. 4): ~100%
- relationship of reduction of fluorescence and cellular cytotoxicity (A431 tumor bearing mice [1]; therapeutic light L with light intensity of 50 mW/cm^2 or less (solid line B, FIG. 4)): linear relationship
- rate of cellular cytotoxicity (A431 tumor bearing mice [1]; therapeutic light L with light intensity of 100 mW/cm^2 or more (solid line D, FIG. 4), reduction of fluorescence also found): low
- cellular cytotoxicity (rates of damage of the tissues) (A431 tumor bearing mice [2]): greater

Source: patent US20220096862A1, “METHOD FOR IRRADIATING CELLS WITH LIGHT, METHOD FOR CONTROLLING MEDICAL DEVICE, AND MEDICAL DEVICE” (OLYMPUS CORPORATION, priority 2019, published 2022)
